Series [1] is described as follows: Antioxidant activity assessed as hydroxyl radical scavenging activity at 1 mM after 5 min by UV-Visible spectrophotometry. Type of series: functional.
For series [2], the system named is Radical scavenging activity. Kind of series: Antioxidant activity assessed as DPPH radical scavenging activity at 1 mM after 20 min by UV-Visible spectrophotometry. The series is classed as functional. On the technique in general: DPPH is a stable violet radical that fades when it is reduced.
The nature of series [3]: Antioxidant activity assessed as ferric reducing activity at 1 mM after 5 min by UV-Visible spectrophotometry. The series is classed as functional. Details: scale not given: the % may be the effect or the level left.
Series [4] deals with Candida albicans. Kind of series: Antimicrobial activity against Candida albicans MTCC 3017 at 10 ug after 48 hr by agar disk diffusion method. Conditions: MTCC 3017, 48 h, read-out: DIZ. Type of series: functional. In general terms: A growth-free zone around the sample is the usual read-out of agar diffusion tests.
The test system of series [5] is Escherichia coli. Kind of series: Antimicrobial activity against Escherichia coli DH5[alpha] at 20 ug after 24 hr by agar disk diffusion method. Type of series: functional. The following applies: read-out: DIZ.
The test system of series [6] is Staphylococcus aureus. Kind of series: Antimicrobial activity against Staphylococcus aureus MTCC 96 at 20 ug after 24 hr by agar disk diffusion method. The following applies: MTCC 96, 24 h, read-out: DIZ. Type of series: functional.
Series [7] has as its system Proteus vulgaris. Kind of series: Antimicrobial activity against Proteus vulgaris MTCC 1751 at 20 ug after 24 hr by agar disk diffusion method. Type of series: functional. Conditions: MTCC 1751, 24 h, read-out: DIZ.
Series [8] relates to Radical scavenging activity. Kind of series: Antioxidant activity assessed as DPPH radical scavenging activity at 100 ug after 20 min by UV-Visible spectrophotometry. Type of series: functional.
A short description of series [9]: Cytotoxicity against Homo sapiens (human) Hep-3BPN7 at 100 ug after 72 hr by MTT assay. Type of series: functional.
For series [10], the system named is Proteus vulgaris. Kind of series: Antimicrobial activity against Proteus vulgaris MTCC 1751 at 100 ug after 24 hr by agar disk diffusion method. Type of series: functional. Conditions: MTCC 1751, 24 h, read-out: DIZ.
A short description of series [11]: Antioxidant activity assessed as ferric reducing activity at 100 ug after 20 min by UV-Visible spectrophotometry. Also noted: scale not given: the % may be the effect or the level left.
Series [12] has as its system Escherichia coli. Kind of series: Antimicrobial activity against Escherichia coli DH5[alpha] at 100 ug after 24 hr by agar disk diffusion method. Type of series: functional. The following applies: read-out: DIZ.
Series [13] is described as follows: Cytotoxicity against Homo sapiens (human) PN-5C-12 at 100 ug after 72 hr by MTT assay. Conditions: in vitro. In general terms: Tetrazolium assays rely on reduction of a dye to a coloured formazan, in cell work by metabolically active cells.
The test system of series [14] is Staphylococcus aureus. The experiment in a line: Antimicrobial activity against Staphylococcus aureus MTCC 96 at 100 ug after 24 hr by agar disk diffusion method. The series is classed as functional. The following applies: MTCC 96, 24 h, read-out: DIZ.
The nature of series [15]: Cytotoxicity against Homo sapiens (human) HL60-P58 at 100 ug after 72 hr by MTT assay. The series is classed as functional.
Series [16] relates to Candida albicans. Kind of series: Antimicrobial activity against Candida albicans MTCC 3017 at 100 ug after 48 hr by agar disk diffusion method. Type of series: functional. Conditions: MTCC 3017, 48 h, read-out: DIZ.
The nature of series [17]: Cytotoxicity against Homo sapiens (human) HeLa-B75 at 100 ug after 72 hr by MTT assay. Type of series: functional.
Series [18] in a line: Antioxidant activity assessed as hydroxyl radical scavenging activity at 100 ug after 5 min by UV-Visible spectrophotometry. Type of series: functional.

Each structure is given as a SMILES string.

For the compound `O=C1O[C@H]([C@@H](O)CO)C(O)=C1O`, the Activity in series [1] is 88.3%; in series [2], 95.8%; in [3], 78.2%.

For the compound `OC(Cn1cncn1)(Cn1cncn1)c1ccc(F)cc1F` [FLUCONAZOLE], the zone of inhibition at 10 µg/disc in the series on Candida albicans [4] came to 6.5 mm.

As to `CN[C@@H]1[C@H](O[C@H]2[C@H](O[C@H]3[C@H](O)[C@@H](O)[C@H](N=C(N)N)[C@@H](O)[C@@H]3N=C(N)N)O[C@@H](C)[C@]2(O)C=O)O[C@@H](CO)[C@H](O)[C@H]1O` [STREPTOMYCIN], the zone of inhibition at 20 µg/disc worked out at 2.5 mm with Escherichia coli [5], 2 mm with Staphylococcus aureus [6] and 2.4 mm with Proteus vulgaris [7].

Consider `COc1cc(OC)c(C2=CCN(C)CC2)c(OC)c1/C=C/C(=O)c1ccc(Cl)c(Cl)c1`, for which the Activity in [8] is 56.9%; in series [9], 79.8%; in [11], 46.7%; in series [13] it was 67.19%; in [15] it was 65.04%; in series [17], 85.93%. In addition, the Activity in series [18] turned out to be 59.8%. For the same compound, the zone of inhibition at 100 µg/disc with Proteus vulgaris [10] amounted to 9.1 mm; in the series on Escherichia coli [12], 1.5 mm; in the series with Staphylococcus aureus [14] it was 5 mm; in the series on Candida albicans [16] it was 5.5 mm.

Consider `COc1cc(OC)c(C2=CCN(C)CC2)c(OC)c1/C=C/C(=O)c1cc(Cl)ccc1Cl`, for which the Activity in series [8] worked out at 55.4%; in series [9] it was 70.8%; in series [11] it was 62.4%; in [13], 60.47%; in [15], 65.63%; in series [17], 79.97%. Also, the Activity in [18] amounted to 48.5%. Also, the zone of inhibition at 100 µg/disc in the series on Proteus vulgaris [10] came to 6.5 mm; with Escherichia coli [12], 1.5 mm; in the series with Staphylococcus aureus [14], 1.5 mm; in the series with Candida albicans [16], 1.5 mm.

With `COc1ccc(C(=O)/C=C/c2c(OC)cc(OC)c(C3=CCN(C)CC3)c2OC)cc1OC`, the Activity in series [8] amounted to 22.3%; in series [9], 79.46%; in series [11], 50.7%; in series [13], 65.21%; in [15] it was 62.77%; in [17], 84.84%. In addition, the Activity in series [18] is 35%. The zone of inhibition at 100 µg/disc in the series on Proteus vulgaris [10] was 5.5 mm; in the series on Escherichia coli [12], 2 mm; with Staphylococcus aureus [14], 0.5 mm; in the series on Candida albicans [16], 1.5 mm.

In the case of `COc1cc(OC)c(C2=CCN(C)CC2)c(OC)c1/C=C/C(=O)c1ccc(Cl)cc1Cl`, the Activity in [8] turned out to be 56.7%; in series [9], 71.26%; in series [11], 63.6%; in series [13], 50.98%; in series [15], 58.99%; in series [17], 79.42%. In series [18], the Activity is 48.1%. The zone of inhibition at 100 µg/disc was 5.5 mm in the series on Proteus vulgaris [10], 2.5 mm in the series with Escherichia coli [12], 1.1 mm with Staphylococcus aureus [14] and 1.1 mm with Candida albicans [16].

With `COc1cc(OC)c(C2=CCN(C)CC2)c(OC)c1/C=C/C(=O)c1cccc(N)c1`, the Activity in series [8] was found to be 94.5%; in series [9], 76.33%; in [11], 64.8%; in [13], 44.53%; in series [15], 66.72%; in series [17], 82.64%. Further, the Activity in [18] came out at 55.6%. Moreover, the zone of inhibition at 100 µg/disc was 7 mm with Proteus vulgaris [10], 3.5 mm with Escherichia coli [12], 3.5 mm in the series on Staphylococcus aureus [14] and 6.3 mm in the series on Candida albicans [16].

These data come from ChEMBL document CHEMBL3046962, “Synthesis of new olefin chalcone derivatives as antitumor, antioxidant and antimicrobial agents” (Med Chem Res, 2012).
